This is an account of results in patent EP4631937A1, “CRYSTALLINE FORM OR AMORPHOUS FORM OF OXOISOINDOLE-5-FORMAMIDE COMPOUND OR SALT AND SOLVATE THEREOF” (Hangzhou Glubio Pharmaceutical Co., Ltd., priority 2022, dated 2024).

A short description of this data set: Pharmacokinetic evaluation in mice by gavage. The note with it: CD1 male mice, oral, 30 mg/kg. On the set-up: AUClast /D: unit not given here. It is filed as in vivo. The protocol:
CD1 male mice were selected and the test compound was administered orally. The drug concentration in plasma at different time points was quantitatively determined by LC/MS/MS to evaluate the pharmacokinetic characteristics of the test drug in mice.
Experimental materials: CD1 Mouse (male, 20-30 g, 6-8 weeks old, Zhejiang Weitong Lihua).
Blood was collected from the dorsal plantar vein at 0.25 h, 0.5 h, 1 h, 2 h, 4 h, 6 h, 8 h and 24 h after administration, placed in an anticoagulant tube containing EDTA-K2 and mixed, and centrifuged at 4°C and 4000 g for 5 minutes. The drug concentration in blood was determined by LC-MS/MS, and the relevant pharmacokinetic parameters were calculated by the non-compartmental linear/log trapezoidal method using Phoenix WinNonlin 6.3 pharmacokinetic software.

The mark [1] stands for this setting: mouse, plasma, 25 mM citrate buffer (pH 3) containing 5% Tween 80.

SMILES strings stand for the structures.

As usually defined, the AUC(0-inf) is the area under the concentration-time curve extrapolated to infinity. As usually defined, the AUC(0-t) is the area under the concentration-time curve up to a stated or last time point. The term Cmax denotes the peak of the concentration-time curve. As a reminder, the Tmax is the time at which the peak concentration occurs. As a reminder, the half-life is the time needed for the level to fall by half in the phase considered. In the case of `O=C1CC[C@H](N2Cc3cc(C(=O)N[C@H](c4ccc(Cl)cn4)C4CCC4)ccc3C2=O)C(=O)N1` [Amorphous], the “AUClast /D” value (25 mM citrate buffer (pH 3) containing 5% Tween 80, dose-normalised) stood at 1178 ± 116. Besides, under setting [1], the AUC(0-inf) came to 35900 ± 3760 ng·h/mL, the area under the curve AUC(0-t) was found to be 35300 ± 3480 ng·h/mL, the peak concentration (Cmax) was 17800 ± 3130 ng/mL and the time to peak (Tmax) amounted to 0.42 h. This compound also gave a half-life under setting [1] of 3.1 h.
